Laboratory results as given in paper PMC6522510 (Nature Communications, 2019).
Like-named read-outs stand apart in the source and are kept apart here.

Tests used:
CMS [1] = test: Secondary dose-response HTS, Cell Titer Glo; assay type: cell-based, human; conditions: Homo sapiens
CHRF288-11 [2] = test: Secondary dose-response HTS, Cell Titer Glo; assay type: cell-based, human; conditions: for EC50: Homo sapiens
ML2 = test: Secondary dose-response HTS, Cell Titer Glo; assay type: cell-based, human; conditions: ML-2; for EC50: Homo sapiens
U937 [3] = test: Secondary dose-response HTS, Cell Titer Glo; assay type: cell-based, human; conditions: for EC50: Homo sapiens, U-937
M07e [4] = test: Secondary dose-response HTS, Cell Titer Glo; assay type: cell-based, human; conditions: for EC50: Homo sapiens, M-07e
[5] = tested on: panel of 8 AML cell lines; test: Secondary dose-response HTS, whole panel; assay type: cell-based, human; conditions: secondary HTS (Supplementary Data 2)
CMK [6] = test: cells; design: species or system AML cell lines (8); Secondary HTS, 10-point dose-response in triplicate, Cell Titer Glo viability, four-parameter fit EC50; conditions: Homo sapiens, CMK, 72 h, read-out: CMK
[7] = tested on: AMKL primary AML blast samples; test: Ex vivo drug treatment of primary AML blasts on mesenchymal stromal cells; assay type: cell-based; conditions: Homo sapiens; primary blasts on MSC, 96 h
MV4-11 [8] = test: cells; design: species or system AML cell lines (8); Secondary HTS, 10-point dose-response in triplicate, Cell Titer Glo viability, four-parameter fit EC50; conditions: Homo sapiens, MV4-11, 72 h, read-out: MV4-11
MOLM-13 [9] = test: Secondary dose-response HTS, Cell Titer Glo; assay type: cell-based, human; conditions: Homo sapiens, MOLM-13
[10] = tested on: FLT3-ITD+ primary AML blast samples
[11] = tested on: MLLr primary AML blast samples; test: Ex vivo drug treatment of primary AML blasts on mesenchymal stromal cells; assay type: cell-based; conditions: Homo sapiens; primary blasts on MSC, 96 h, range over patient samples
CHRF288-11 [12] = test: cells; design: species or system AML cell lines (8); Secondary HTS, 10-point dose-response in triplicate, Cell Titer Glo viability, four-parameter fit EC50; conditions: 72 h, read-out: CHRF288-11
ML-2 [13] = test: cells; design: species or system AML cell lines (8); Secondary HTS, 10-point dose-response in triplicate, Cell Titer Glo viability, four-parameter fit EC50; conditions: Homo sapiens, ML-2, 72 h, read-out: ML-2
U937 [14] = test: cells; design: species or system AML cell lines (8); Secondary HTS, 10-point dose-response in triplicate, Cell Titer Glo viability, four-parameter fit EC50; conditions: Homo sapiens, U-937, 72 h, read-out: U937
M07e [15] = test: cells; design: species or system AML cell lines (8); Secondary HTS, 10-point dose-response in triplicate, Cell Titer Glo viability, four-parameter fit EC50; conditions: M-07e, 72 h, read-out: M07e
CMK [16] = test: Secondary dose-response HTS, Cell Titer Glo; assay type: cell-based, human; conditions: CMK; for EC50: Homo sapiens
MV4-11 [17] = test: Secondary dose-response HTS, Cell Titer Glo; assay type: cell-based, human; conditions: Homo sapiens, MV4-11
ML-2 [18] = assay type: cell-based; conditions: Homo sapiens, 72 h, Cell Titer Glo
CMS [19] = assay type: cell-based; conditions: Homo sapiens; 72 h, Cell Titer Glo; read-out: IC50 CMS
U937 [20] = assay type: cell-based; conditions: Homo sapiens, U-937; 72 h, Cell Titer Glo
MV4-11 [21] = assay type: cell-based; conditions: Homo sapiens, 72 h, Cell Titer Glo
THP-1 = assay type: cell-based; conditions: Homo sapiens, 72 h, Cell Titer Glo
MOLM-13 [22] = assay type: cell-based; conditions: Homo sapiens, 72 h, Cell Titer Glo
CHRF288-11 [23] = assay type: cell-based; conditions: Homo sapiens; 72 h, Cell Titer Glo; read-out: IC50 CHRF288-11
MOLM-13 [24] = test: cells; design: species or system AML cell lines (8); Secondary HTS, 10-point dose-response in triplicate, Cell Titer Glo viability, four-parameter fit EC50; conditions: Homo sapiens, MOLM-13, 72 h, read-out: MOLM-13
CMS [25] = test: cells; design: species or system AML cell lines (8); Secondary HTS, 10-point dose-response in triplicate, Cell Titer Glo viability, four-parameter fit EC50; conditions: 72 h, read-out: CMS
[26] = HTS, secondary high-throughput screen, CMS, read-out: average effective concentration, CMS
[27] = HTS, secondary high-throughput screen, CHRF288-11, read-out: average effective concentration, CHRF288-11
[28] = secondary high-throughput screen, read-out: average effective concentration, ML-2
[29] = secondary high-throughput screen, U937, read-out: average effective concentration, U937
[30] = secondary high-throughput screen, M07e, read-out: average effective concentration, M07e
[31] = secondary high-throughput screen, read-out: average effective concentration, MOLM-13
[32] = secondary HTS, 72 h, average of triplicate, read-out: EC50 CMS
[33] = secondary HTS, 72 h, average of triplicate, read-out: EC50 CHRF288-11
[34] = secondary HTS, 72 h, average of triplicate, read-out: EC50 U937
[35] = secondary HTS, 72 h, average of triplicate, read-out: EC50 CMK
[36] = secondary high-throughput screen, read-out: average effective concentration, CMK
[37] = secondary HTS, 72 h, average of triplicate, read-out: EC50 MOLM-13
[38] = secondary HTS, 72 h, average of triplicate, read-out: EC50 M07e
[39] = secondary HTS, 72 h, average of triplicate, read-out: EC50 MV4-11
[40] = secondary high-throughput screen, read-out: average effective concentration, MV4-11
[41] = secondary high-throughput screen

Row | Structure (SMILES) | EC50 (CMS [1]; [26]) [nM] | EC50 (CHRF288-11 [2]; [27]) [nM] | EC50 (ML2; [28]) [nM] | EC50 (U937 [3]; [29]) [nM] | active cell lines out of 8 in HTS [5] | IC50 [7] [nM] | EC50 (MOLM-13 [9]; [31]) [nM] | IC50 [10] [nM] | IC50 [11] [nM] | EC50 (CMK [16]; [36]) [nM] | EC50 (MV4-11 [17]; [40]) [nM] | also measured
1 | CON(C)C(=O)N1N=C(c2cc(F)ccc2F)S[C@@]1(CCCN)c1ccccc1 [ARRY-520, reference compound] | 1 | 1 | 1 | 1 | 3/8 | – | – | – | – | – | – | EC50 (M07e [4]; [30]): 1 nM
2 | COc1cc(Nc2ncc3c(n2)-c2ccc(Cl)cc2C(c2c(F)cccc2OC)=NC3)ccc1C(=O)O [Alisertib] | 4000 | – | – | – | 4/8 | 441 | 8300 | 8.8 to 3190 | 105 to 4320 | – | – | EC50 (CMK [6]): 2.1 nM; EC50 (MV4-11 [8]): > 10000 nM; EC50 (CHRF288-11 [12]): > 10000 nM; EC50 (ML-2 [13]): > 10000 nM; EC50 (U937 [14]): > 10000 nM; EC50 (M07e [15]): > 10000 nM
3 | CC(C)C[C@H](NC(=O)[C@H](CCc1ccccc1)NC(=O)CN1CCOCC1)C(=O)N[C@@H](Cc1ccccc1)C(=O)N[C@@H](CC(C)C)C(=O)[C@@]1(C)CO1 [Carfilzomib, reference compound] | – | 19 | – | – | – | 54 | 5.44 | 6 to 62 | 4.3 to 53 | 6 | 1.1 | EC50 (CMS [1]; [32]): 1 nM; EC50 (CHRF288-11 [2]; [33]): 20 nM; EC50 (U937 [3]; [34]): 10 nM; EC50 (CMK [16]; [35]): 10 nM; EC50 (MOLM-13 [9]; [37]): 10 nM; EC50 (M07e [4]; [38]): 1 nM; EC50 (M07e [4]; [30]): 1.4 nM; EC50 (MV4-11 [17]; [39]): 1 nM
4 | C=CCn1c(=O)c2cnc(Nc3ccc(N4CCN(C)CC4)cc3)nc2n1-c1cccc(C(C)(C)O)n1 [MK-1775, reference compound] | 630 | 10000 | 210 | 460 | 7/8 | > 10000 | 370 | – | – | 210 | 210 | –
5 | CC(=O)O[C@H]1C(=O)[C@@]2(C)[C@H]([C@H](OC(=O)c3ccccc3)[C@]3(O)C[C@H](OC(=O)[C@H](O)[C@@H](NC(=O)c4ccccc4)c4ccccc4)C(C)=C1C3(C)C)[C@]1(OC(C)=O)CO[C@@H]1C[C@@H]2O [Paclitaxel, paclitaxel] | – | – | – | – | – | – | – | – | – | – | – | IC50 (ML-2 [18]): 3.5 nM; IC50 (CMS [19]): 25.7 nM; IC50 (U937 [20]): 2.5 nM; IC50 (MV4-11 [21]): 2.1 nM; IC50 (THP-1): 5.4 nM; IC50 (MOLM-13 [22]): 3 nM; IC50 (CHRF288-11 [23]): 24.9 nM
6 | CC(=O)c1c(C)c2cnc(Nc3ccc(N4CCNCC4)cn3)nc2n(C2CCCC2)c1=O [Palbociclib, reference compound] | 9100 | – | – | 10000 | – | 5170 | – | 979 to 5260 | 1110 to 4000 | 3500 | – | –
7 | CCOc1cc(C(C)(C)C)ccc1C1=N[C@@](C)(c2ccc(Cl)cc2)[C@@](C)(c2ccc(Cl)cc2)N1C(=O)N1CCN(CCCS(C)(=O)=O)CC1 [RG7112, reference compound] | – | – | 6800 | – | – | – | 290 | 77 to 952 | 149 to 845 | – | 2500 | EC50 (M07e [4]; [30]): > 10000 nM
8 | C/C=C1\NC(=O)[C@H]2CSSCC/C=C/[C@H](CC(=O)N[C@H](C(C)C)C(=O)N2)OC(=O)[C@H](C(C)C)NC1=O [Romidepsin, reference compound] | – | 6.5 | 3.8 | 3.2 | – | 5 | 0.67 | 3.8 to 13 | 1.6 to 6 | 8 | 0.6 | EC50 (CMS [1]; [32]): 1 nM; EC50 (CHRF288-11 [2]; [33]): 10 nM; EC50 (ML2; secondary HTS, 72 h, average of triplicate, read-out: EC50 ML2): 4 nM; EC50 (U937 [3]; [34]): 3 nM; EC50 (CMK [16]; [35]): 10 nM; EC50 (MOLM-13 [9]; [37]): 1 nM; EC50 (M07e [4]; [38]): 2 nM; EC50 (M07e [4]; secondary high-throughput screen, […], read-out: average effective concentration, M07e): 1.7 nM; EC50 (MV4-11 [17]; [39]): 1 nM
9 | CC(=O)Nc1cccc(-n2c(=O)n(C3CC3)c(=O)c3c(Nc4ccc(I)cc4F)n(C)c(=O)c(C)c32)c1 [Trametinib] | – | – | 1 | – | – | – | – | 130 to 5310 | 1.6 to 1470 | – | – | EC50 (CMK [6]): > 10000 nM; EC50 (MOLM-13 [24]): > 10000 nM; EC50 (MV4-11 [8]): > 10000 nM; EC50 (CHRF288-11 [12]): > 10000 nM; EC50 (U937 [14]): > 10000 nM; EC50 (CMS [25]): > 10000 nM; EC50 (M07e [15]): > 10000 nM
10 | CC1(C)CCC(CN2CCN(c3ccc(C(=O)NS(=O)(=O)c4ccc(NCC5CCOCC5)c([N+](=O)[O-])c4)c(Oc4cnc5[nH]ccc5c4)c3)CC2)=C(c2ccc(Cl)cc2)C1 [Venetoclax, reference compound] | – | – | – | – | – | – | > 10000 | 3.2 to 16 | 46 to 1050 | – | 1 | EC50 (CMS [1]; HTS, read-out: average effective concentration, CMS): > 10000 nM; average effective concentration, CHRF288-11 (CHRF288-11 [2]; secondary high-throughput screen, CHRF288-11): Inactive; average effective concentration, ML-2 (ML2; [41]): Inactive; average effective concentration, U937 (U937 [3]; secondary high-throughput screen, U937): Inactive; average effective concentration, CMK (CMK [16]; [41]): Inactive; average effective concentration, M07e (M07e [4]; secondary high-throughput screen, M07e): Inactive
11 | CC[C@@H]1C(=O)N(C)c2cnc(Nc3ccc(C(=O)N[C@H]4CC[C@H](N5CCN(CC6CC6)CC5)CC4)cc3OC)nc2N1C(C)C [Volasertib, reference compound] | 1400 | 3200 | 1 | 1 | 7/8 | 353 | – | 4.6 to 931 | 62 to 482 | 15 | 8 | –
12 | CCN(CCCOc1ccc2c(Nc3cc(CC(=O)Nc4cccc(F)c4)n[nH]3)ncnc2c1)CCOP(=O)(O)O [barasertib, reference compound] | – | – | 1 | 1 | 3/8 | – | 7 | – | – | 35 | 1 | –
13 | COc1cc(OC)c(/C=C/S(=O)(=O)Cc2ccc(OC)c(NCC(=O)O)c2)c(OC)c1 [rigosertib, reference compound] | 11 | 17 | 15 | 5 | 7/8 | – | 6 | – | – | 3.61 | – | –
